The values below come from ChEMBL document CHEMBL1201862, “PubChem BioAssay data set” (2004).

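Where inhibition never reached the appropriate level, the endpoint shown equals the highest concentration tested. Otherwise, values were interpolated linearly from a five-concentration, 48-hour dose response in 96-well plates. Abbreviation: GI50, concentration required for 50% inhibition of growth.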 Calls of active or inactive are those of the source. Rule as the data show it: active = GI50 up to about 1.1 µM and inactive = higher.

Test in all cases: NCI tumour cell line growth inhibition, 48 h
Test [1] relates to Hs-578T.
Test [2] relates to HT-29.
Test [3] concerns U-251.
The test system of test [4] is SK-OV-3.
In test [5] the test system is T47D.
The test system of test [6] is M14.
In test [7] the test system is SR.
In test [8] the test system is SK-MEL-2.
Test [9] concerns HOP-92.
For test [10], the system named is A498.
Test [11] has as its system SNB-78.
Test [12] deals with OVCAR-5.
Test [13] relates to MCF7.
Test [14] has as its system SK-MEL-28.
The test system of test [15] is Malme-3M.
Test [16] concerns NCI/ADR-RES.
Test [17] concerns COLO 205.
The test system of test [18] is HOP-62.
Test [19] relates to HCC 2998.
Test [20] deals with DU-145.

As to `CCCCCCCCCCCCCC(=O)OC(/C=C/C(C)C)C(O)C(O)C(OC)C(=O)NC1CCCCNC1=O` (centres undefined), the GI50 in test [1] is 9.79 µM (inactive); in test [2], 0.927 µM (active); in test [3] it was 0.673 µM (active); in test [4] it was 2.54 µM (inactive); in test [5], > 10 µM (inactive); in [6], 0.655 µM (active). The GI50 in test [7] is 0.097 µM (active); in test [8] it was 2.65 µM (inactive); in test [9], 1.17 µM (inactive); in test [10], 5.21 µM (inactive); in [11] it was 2.82 µM (inactive); in test [12] it was 3.65 µM (inactive). Also, the GI50 was 0.693 µM (active) in test [13]; 1.61 µM (inactive) in test [14]; 2.02 µM (inactive) in [15]; > 10 µM (inactive) in [16]; 0.299 µM (active) in test [17]; 1.61 µM (inactive) in test [18]. In addition, the GI50 in test [19] was 0.574 µM (active); in [20] it was > 10 µM (inactive).
Take `C/C=C(\CCOS(=O)(=O)c1ccc(C)cc1)[Si](C)(C)C`: the GI50 in test [2], in test [3], in test [4], in test [6], in test [7] and in test [8] was > 100 µM (inactive) throughout. Also, the GI50 in test [9], in test [10], in test [11], in test [12], in test [14] and in [15] was > 100 µM (inactive) in each case. For the same molecule, the GI50 in [17] and in test [19] was > 100 µM (inactive) each time.
Take `Cc1cc2c([nH]c3ccccc32)c2c1OC(C)(C)C1C3CC(C)(C)Oc4c(C)cc5c6ccccc6n(c5c43)C21` (centres undefined): the GI50 in test [2], in test [3], in test [4], in [6], in [7] and in test [8] was > 100 µM (inactive) each time. Also, the GI50 in test [9], in test [10], in [11], in test [12], in [14] and in test [15] was > 100 µM (inactive) throughout. Besides, the GI50 in [17], in test [18] and in test [19] was > 100 µM (inactive) throughout.
Take `COc1cc(/C=C/c2ccc(OC)c(OC)c2OC)cc(OC)c1OC`: the GI50 was 20.8 µM (inactive) in test [2]; 16.8 µM (inactive) in test [3]; 24.7 µM (inactive) in [4]; 25.4 µM (inactive) in test [6]; 12.2 µM (inactive) in test [7]; 16.9 µM (inactive) in test [8]. Besides, the GI50 in test [9] is 9.35 µM (inactive); in test [10], 22 µM (inactive); in test [11] it was 17.3 µM (inactive); in test [12], 15.8 µM (inactive); in [14], 15.3 µM (inactive); in test [15] it was 20.2 µM (inactive). In addition, the results for the GI50 in test [17], in [18] and in test [19] were 17.3 µM (inactive), 15.6 µM (inactive) and 13.2 µM (inactive), respectively.
On to `COc1ccc2nc3ccccc3c(NCCCCCN(CCCl)CCCl)c2c1`, for which the GI50 was 0.358 µM (active) in test [1]; 0.0354 µM (active) in test [2]; 0.0318 µM (active) in test [3]; 0.192 µM (active) in [4]; < 0.01 µM (active) in test [5]; 0.0581 µM (active) in test [6]. Further, the GI50 in test [7] was < 0.01 µM (active); in test [8] it was 0.194 µM (active); in test [9] it was 0.04 µM (active); in test [10], 0.206 µM (active); in test [11], 0.277 µM (active); in test [12], 0.207 µM (active). In addition, the GI50 in test [13] was < 0.01 µM (active); in test [14], 0.214 µM (active); in test [15] it was 0.524 µM (active); in [16], 0.0399 µM (active); in [17] it was < 0.0301 µM (active); in [18] it was 0.0776 µM (active). Also, the GI50 was 0.108 µM (active) in test [19] and 0.192 µM (active) in [20].
